Experimental data published in US20260028365A1 (BIOGEN MA INC., priority 2022, published 2026).

The molecules below were run against JH2 domain of human Tyk2 (Homo sapiens (Human), UniProt P29597) (assay: JH2 Biochemical Assay (TR-FRET probe displacement)). Conditions: JH2 domain of human Tyk2, TR-FRET probe displacement.
Sequence of JH2 domain of human Tyk2 (P29597 575-876): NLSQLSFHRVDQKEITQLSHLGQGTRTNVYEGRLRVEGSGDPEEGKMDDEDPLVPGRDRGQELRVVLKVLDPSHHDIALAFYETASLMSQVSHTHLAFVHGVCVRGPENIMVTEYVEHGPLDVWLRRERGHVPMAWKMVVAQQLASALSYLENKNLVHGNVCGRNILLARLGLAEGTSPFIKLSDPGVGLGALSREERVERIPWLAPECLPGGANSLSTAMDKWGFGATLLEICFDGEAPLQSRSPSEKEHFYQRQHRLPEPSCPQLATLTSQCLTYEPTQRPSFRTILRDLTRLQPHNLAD
Assay type: binding
Method: The inhibitory potency of compounds of the disclosure against the kinase activity of recombinantly generated JH2 domain of human Tyk2 was evaluated in a plate-based assay using a TR-FRET assay platform. Briefly, 2 nM of recombinant JH2 domain [10×His-tagged TYK2 JH2 domain (amino acid 575-876)] was combined with 2 nM probe ((S)-6-amino-9-(2-carboxy-4-((1-(3-(8-methyl-5-(methylamino)-8H-imidazo[4,5-d]thiazolo[5,4-b]pyridin-2-yl)phenyl)ethyl)carbamoyl)phenyl)-3-iminio-5-sulfo-3H-xanthene-4-sulfonate), 0.1 nM Tb-labeled anti-His antibody, and compounds of disclosure for 60 minutes. Compounds are tested at either 10 μM or 1 μM top concentration, 10 points of 3-fold dilution. The TR-FRET signal inversely correlates to the amount of probe displaced by compounds and signal was calculated by taking the ratio of fluorescence at 520 nm and 495 nm. The data was normalized and the percent activity versus log concentration of compound was fitted with a 4-parameter logistic model to generate IC50 curves.
In the case of `COc1cnc(NC(C)=O)cc1Nc1cc(-c2cc(C)c3nn(C)cc3c2)nc(C(C)(F)F)n1` [Example 400, N-(4-((2-(1,1-difluoroethyl)-6-(2,7-dimethyl-2H-indazol-5-yl)pyrimidin-4-yl)amino)-5-methoxypyridin-2-yl)acetamide], the IC50 is reported as no more than 10 nM.
In the case of `CC(=O)Nc1cc(Nc2cc(C)nc(C(C)(F)F)n2)c(OCC2(C)CCCCO2)cn1` (centres unmarked) [Example 435, N-(4-((2-(1,1-difluoroethyl)-6-methylpyrimidin-4-yl)amino)-5-((2-methyltetrahydro-2H-pyran-2-yl)methoxy)pyridin-2-yl)acetamide], the IC50 is reported as no more than 10 nM.
With `CC(=O)Nc1cc(Nc2ccnc(C(C)(F)F)n2)c(-n2cc(C#N)cn2)cn1` [Example 732, N-(5-(4-cyanO1H-pyrazol-1-yl)-4-((2-(1,1-difluoroethyl)pyrimidin-4-yl)amino)pyridin-2-yl)acetamide] the IC50 was 10 to 100 nM.
Work on `COc1cc(C)nc(-c2cnc(NC(C)=O)cc2Nc2cc(C)nc(C(C)(F)F)n2)n1` [Example 621, N-(4-((2-(1,1-difluoroethyl)-6-methylpyrimidin-4-yl)amino)-5-(4-methoxy-6-methylpyrimidin-2-yl)pyridin-2-yl)acetamide] yielded an IC50 of 10 to 100 nM.
For `COc1cnc(NC(C)=O)cc1Nc1cc(-c2cc(C)c3nc(C)nn3c2)nc(C(C)(F)F)n1` [Example 397, N-(4-((2-(1,1-difluoroethyl)-6-(2,8-dimethyl-[1,2,4]triazolo[1,5-a]pyridin-6-yl)pyrimidin-4-yl)amino)-5-methoxypyridin-2-yl)acetamide], the IC50 was no more than 10 nM.
With `CC(=O)Nc1cc(Nc2cc(C)nc(C(C)(F)F)n2)c(N(C)C)cn1` [Example 725, N-(4-((2-(1,1-difluoroethyl)-6-methylpyrimidin-4-yl)amino)-5-(dimethylamino)pyridin-2-yl)acetamide] the IC50 was 100 to 1000 nM.
In the case of `CC(=O)Nc1cc(Nc2cc(C)nc(C(C)(F)F)n2)c(-c2cnc(C(C)N3CCCC3)cn2)cn1` (centres unmarked) [Example 742, N-(4-((2-(1,1-difluoroethyl)-6-methylpyrimidin-4-yl)amino)-5-(5-(1-(pyrrolidin-1-yl)ethyl)pyrazin-2-yl)pyridin-2-yl)acetamide], the IC50 is reported as no more than 10 nM.
Work on `CC(=O)Nc1cc(Nc2ccnc(C(C)(F)F)n2)c(-c2nnc(C3CC3)o2)cn1` [Example 717, N-(5-(5-cyclopropyl-1,3,4-oxadiazol-2-yl)-4-((2-(1,1-difluoroethyl)pyrimidin-4-yl)amino)pyridin-2-yl)acetamide] yielded an IC50 of no more than 10 nM.
Work on `CC(=O)Nc1cc(Nc2ccnc(C(C)(F)F)n2)c(-c2csc(C(C)(C)F)n2)cn1` [Example 713, N-(4-((2-(1,1-difluoroethyl)pyrimidin-4-yl)amino)-5-(2-(2-fluoropropan-2-yl)thiazol-4-yl)pyridin-2-yl)acetamide] yielded an IC50 of no more than 10 nM.
For `COc1cnc(NC(C)=O)cc1Nc1cc(-c2cc(C)c3nc(C)cn3c2)nc(C(C)(F)F)n1` [Example 403, N-(4-((2-(1,1-difluoroethyl)-6-(2,8-dimethylimidazo[1,2-a]pyridin-6-yl)pyrimidin-4-yl)amino)-5-methoxypyridin-2-yl)acetamide], the IC50 was no more than 10 nM.
For `COc1ccc(-c2cnc(NC(C)=O)cc2Nc2cc(C)nc(C(C)(F)F)n2)nc1F` [Example 622, N-(4′-((2-(1,1-difluoroethyl)-6-methylpyrimidin-4-yl)amino)-6-fluorO5-methoxy-[2,3′-bipyridin]-6′-yl)acetamide], the IC50 was no more than 10 nM.
`CC(=O)Nc1cc(Nc2cc(C)nc(C(C)(F)F)n2)c(-n2cnc(C)n2)cn1` [Example 735, N-(4-((2-(1,1-difluoroethyl)-6-methylpyrimidin-4-yl)amino)-5-(3-methyl-1H-1,2,4-triazol-1-yl)pyridin-2-yl)acetamide] showed an IC50 of 10 to 100 nM.
With `COc1cc(C(F)(F)F)nc(Nc2cc(NC(C)=O)ncc2OC)n1` [Example 438, N-(5-methoxy-4-((4-methoxy-6-(trifluoromethyl)pyrimidin-2-yl)amino)pyridin-2-yl)acetamide] the IC50 was 100 to 1000 nM.
With `CC(=O)Nc1cc(Nc2ccnc(C(C)(F)F)n2)c(-n2cnc(C)n2)cn1` [Example 734, N-(4-((2-(1,1-difluoroethyl)pyrimidin-4-yl)amino)-5-(3-methyl-1H-1,2,4-triazol-1-yl)pyridin-2-yl)acetamide] the IC50 was 100 to 1000 nM.
Work on `CC(=O)Nc1cc(Nc2cc(C)nc(C(C)(F)F)n2)c(-c2nc(C)ns2)cn1` [Example 618, N-(4-((2-(1,1-difluoroethyl)-6-methylpyrimidin-4-yl)amino)-5-(3-methyl-1,2,4-thiadiazol-5-yl)pyridin-2-yl)acetamide] yielded an IC50 of no more than 10 nM.
`CC(=O)Nc1cc(Nc2cc(C)nc(C(C)(F)F)n2)c(N2CCCC2)cn1` [Example 726, N-(4-((2-(1,1-difluoroethyl)-6-methylpyrimidin-4-yl)amino)-5-(pyrrolidin-1-yl)pyridin-2-yl)acetamide] gave an IC50 of 10 to 100 nM.

Same assay, conditions: TR-FRET probe displacement, JH2 domain
`CC(=O)Nc1cc(Nc2cc(C)nc(C(C)(F)F)n2)c(-c2nc(CN3CCN(C)CC3)cs2)cn1` [Example 785, N-(4-((2-(1,1-difluoroethyl)-6-methylpyrimidin-4-yl)amino)-5-(4-((4-methylpiperazin-1-yl)methyl)thiazol-2-yl)pyridin-2-yl)acetamide] gave an IC50 of no more than 10 nM.
`CC(=O)Nc1cc(Nc2cc(C)nc(C(C)(F)F)n2)c(-c2cc(CN3CCOCC3)ccn2)cn1` [Example 806, N-(4′-((2-(1,1-difluoroethyl)-6-methylpyrimidin-4-yl)amino)-4-(morpholinomethyl)-[2,3′-bipyridin]-6′-yl)acetamide] showed an IC50 of no more than 10 nM.
`COCCOc1cc(Nc2ccnc(NC(C)=O)c2)nc(C(C)(F)F)n1` [Example 809, N-(4-((2-(1,1-difluoroethyl)-6-(2-methoxyethoxy)pyrimidin-4-yl)amino)pyridin-2-yl)acetamide] was tested, and the IC50 was 10 to 100 nM.
In the case of `CC(=O)Nc1cc(Nc2cccc(C(C)(F)F)n2)c(-c2ccc3c(n2)OCC(C)(C)O3)cn1` [Example 820, N-(4-((6-(1,1-difluoroethyl)pyridin-2-yl)amino)-5-(2,2-dimethyl-2,3-dihydro-[1,4]dioxino[2,3-b]pyridin-6-yl)pyridin-2-yl)acetamide], the IC50 is reported as no more than 10 nM.

Same assay, conditions: TR-FRET probe displacement, JH2 domain of human Tyk2
Work on `CC(=O)Nc1cc(Nc2cc(C)nc(C(C)(F)F)n2)c(C(C)C)cn1` [Example 44, N-(4-((2-(1,1-difluoroethyl)-6-methylpyrimidin-4-yl)amino)-5-isopropylpyridin-2-yl)acetamide] yielded an IC50 of 10 to 100 nM.
`CCOc1cnc(NC(C)=O)cc1Nc1cc(C(C)(F)F)ncn1` [Example 33, N-(4-((6-(1,1-difluoroethyl)pyrimidin-4-yl)amino)-5-ethoxypyridin-2-yl)acetamide] showed an IC50 of 100 to 1000 nM.
Work on `CCOc1cnc(NC(=O)C2CC2)cc1Nc1cc(C)nc(C(C)(F)F)n1` [Example 28, N-(4-((2-(1,1-difluoroethyl)-6-methylpyrimidin-4-yl)amino)-5-ethoxypyridin-2-yl)cyclopropanecarboxamide] yielded an IC50 of 10 to 100 nM.
`CC(=O)Nc1cc(Nc2cc(C)nc(C(C)(F)F)n2)c(OCC2(CF)CCOCC2)cn1` [Example 340, N-(4-((2-(1,1-difluoroethyl)-6-methylpyrimidin-4-yl)amino)-5-((4-(fluoromethyl)tetrahydro-2H-pyran-4-yl)methoxy)pyridin-2-yl)acetamide] gave an IC50 of 10 to 100 nM.
For `COCCCc1cnc(NC(C)=O)cc1Nc1cc(C)nc(C(C)(F)F)n1` [Example 152, N-(4-((2-(1,1-difluoroethyl)-6-methylpyrimidin-4-yl)amino)-5-(3-methoxypropyl)pyridin-2-yl)acetamide], the IC50 was 10 to 100 nM.
Work on `CC(=O)Nc1cc(Nc2cc(C)nc(C(C)(F)F)n2)c(OC[C@]23CC[C@](C)(CC2)CO3)cn1` [Example 347, N-(4-((2-(1,1-difluoroethyl)-6-methylpyrimidin-4-yl)amino)-5-(((1s,4s)-4-methyl-2-oxabicyclo[2.2.2]octan-1-yl)methoxy)pyridin-2-yl)acetamide] yielded an IC50 of no more than 10 nM.
For `CCc1cc(Nc2cc(NC(C)=O)ncc2-c2ccc(OC)nn2)nc(C(C)(F)F)n1` [Example 220, N-(4-((2-(1,1-difluoroethyl)-6-ethylpyrimidin-4-yl)amino)-5-(6-methoxypyridazin-3-yl)pyridin-2-yl)acetamide], the IC50 was no more than 10 nM.
Work on `CC(=O)Nc1cc(Nc2cc(C)nc(C(C)(F)F)n2)c(OCCOC2CC2)cn1` [Example 316, N-(5-(2-cyclopropoxyethoxy)-4-((2-(1,1-difluoroethyl)-6-methylpyrimidin-4-yl)amino)pyridin-2-yl)acetamide] yielded an IC50 of no more than 10 nM.
`CC(=O)Nc1cc(Nc2cc(C)nc(C(C)(F)F)n2)c(OCc2ncsc2C)cn1` [Example 329, N-(4-((2-(1,1-difluoroethyl)-6-methylpyrimidin-4-yl)amino)-5-((5-methylthiazol-4-yl)methoxy)pyridin-2-yl)acetamide] showed an IC50 of 10 to 100 nM.
For `CC(=O)Nc1cc(Nc2cc(C)nc(C(C)(F)F)n2)c(-c2cc(N3CCN(C)CC3)ncn2)cn1` [Example 248, N-(4-((2-(1,1-difluoroethyl)-6-methylpyrimidin-4-yl)amino)-5-(6-(4-methylpiperazin-1-yl)pyrimidin-4-yl)pyridin-2-yl)acetamide], the IC50 was 10 to 100 nM.
`CC(=O)Nc1cc(Nc2ccnc(C(C)(F)F)c2)c(-c2cc(C)ncn2)cn1` [Example 199, N-(4-((2-(1,1-difluoroethyl)pyridin-4-yl)amino)-5-(6-methylpyrimidin-4-yl)pyridin-2-yl)acetamide] gave an IC50 of 10 to 100 nM.
Work on `CC(=O)Nc1cc(Nc2cc(C)nc(C(C)(F)F)n2)c(OCC2(C)CCOCC2)cn1` [Example 317, N-(4-((2-(1,1-difluoroethyl)-6-methylpyrimidin-4-yl)amino)-5-((4-methyltetrahydro-2H-pyran-4-yl)methoxy)pyridin-2-yl)acetamide] yielded an IC50 of no more than 10 nM.
